Reference: ChEMBL document CHEMBL3885861, “Open TG-GATES”

Species on record: Rattus norvegicus
Experiment: Open TG-GATES - Regimen: Single
Assay type: toxicity, organism-based, Sprague-Dawley
Set-up: regimen Single, gender Male, age 6 weeks
Conditions: in vivo, po, route gavage; for gamma-GTP / ALP / ALT / AST / BUN / CRE / Ca / Cl / DBIL / GLC / IP / K / LDH / Na / PL / RALB / TBIL / TC / TG / TP: tissue Plasma; for APTT / Bas / Eos / Fbg / Hb / Ht / Lym / MCH / MCHC / MCV / Mono / Neu / PT / Plat / RBC / Ret: tissue Blood; for KIDNEY_L / KIDNEY_R / KIDNEY_TOTAL: tissue Kidney; for LIVER: tissue Liver
[1] = 300 mg/kg, 3 h, dose level Middle
[2] = 300 mg/kg, 6 h, dose level Middle
[3] = 300 mg/kg, 9 h, dose level Middle
[4] = 300 mg/kg, 24 h, dose level Middle
[5] = 1000 mg/kg, 3 h, dose level High
[6] = 1000 mg/kg, 6 h, dose level High
[7] = 1000 mg/kg, 9 h, dose level High
[8] = 1000 mg/kg, 24 h, dose level High

## COc1ccc2[nH]c([S+]([O-])Cc3ncc(C)c(OC)c3C)nc2c1 (configuration not stated) [OMEPRAZOLE]
100 mg/kg, 24 h, dose level Low
  gamma-GTP: 1.2 IU/L
[1]
  TERMINAL_BW: 223.6 g
  APTT: 18.7 s
  Bas: 0%
  Eos: 1%
  Fbg: 216.4 mg/dL
  Hb: 12.4 g/dL
  Ht: 36.4%
  Lym: 73.2%
  MCH: 21.2 pg
  MCHC: 33.9%
  MCV: 62.3 fL
  Mono: 3.4%
  Neu: 22.2%
  PT: 12.7 s
  Plat: 128.9 x10_4/uL
  RBC: 584.6 x10_4/ul
  Ret: 8.2%
  KIDNEY_L: 1 g
  KIDNEY_R: 1 g
  KIDNEY_TOTAL: 1.9 g
  LIVER: 9.8 g
  ALP: 904.2 IU/L
  ALT: 31.8 IU/L
  AST: 67.2 IU/L
  BUN: 10.2 mg/dL
  CRE: 0.4 mg/dL
  Ca: 10.6 mg/dL
  Cl: 100.6 meq/L
  DBIL: 0.064 mg/dL
  GLC: 194.8 mg/dL
  IP: 9.4 mg/dL
  K: 3.9 meq/L
  LDH: 202 IU/L
  Na: 139.6 meq/L
  PL: 146.4 mg/dL
  RALB: 3.3 g/dL
  TBIL: 0.1 mg/dL
  TC: 80.2 mg/dL
  TG: 70.2 mg/dL
  TP: 5.4 g/dL
  gamma-GTP: 1.6 IU/L
[2]
  TERMINAL_BW: 217.5 g
  APTT: 19 s
  Bas: 0%
  Eos: 1%
  Fbg: 216.4 mg/dL
  Hb: 13.1 g/dL
  Ht: 38.3%
  Lym: 74.4%
  MCH: 21.2 pg
  MCHC: 34.3%
  MCV: 61.8 fL
  Mono: 3.8%
  Neu: 20.6%
  PT: 12.9 s
  Plat: 124 x10_4/uL
  RBC: 620.6 x10_4/ul
  Ret: 6.5%
  KIDNEY_L: 1 g
  KIDNEY_R: 1 g
  KIDNEY_TOTAL: 2 g
  LIVER: 9.4 g
  ALP: 913.6 IU/L
  AST: 66 IU/L
  BUN: 10 mg/dL
  CRE: 0.4 mg/dL
  Ca: 10.3 mg/dL
  Cl: 100.8 meq/L
  DBIL: 0.066 mg/dL
  GLC: 192 mg/dL
  IP: 9.7 mg/dL
  K: 4.1 meq/L
  LDH: 171.2 IU/L
  Na: 140 meq/L
  PL: 145.6 mg/dL
  RALB: 3.3 g/dL
  TBIL: 0.1 mg/dL
  TC: 72.8 mg/dL
  TG: 74.4 mg/dL
  TP: 5.5 g/dL
  gamma-GTP: 1.4 IU/L
[3]
  TERMINAL_BW: 218.4 g
  APTT: 22.1 s
  Bas: 0%
  Eos: 1%
  Fbg: 223.8 mg/dL
  Hb: 12.7 g/dL
  Ht: 37%
  Lym: 76.6%
  MCH: 21.4 pg
  MCHC: 34.3%
  MCV: 62.4 fL
  Mono: 3.2%
  Neu: 18.4%
  PT: 12.9 s
  Plat: 117.1 x10_4/uL
  RBC: 593.4 x10_4/ul
  Ret: 6.7%
  KIDNEY_L: 0.9 g
  KIDNEY_R: 0.9 g
  KIDNEY_TOTAL: 1.9 g
  LIVER: 9.1 g
  ALP: 761.6 IU/L
  ALT: 27.6 IU/L
  AST: 62.8 IU/L
  BUN: 8.2 mg/dL
  CRE: 0.3 mg/dL
  Ca: 10.2 mg/dL
  Cl: 101.4 meq/L
  DBIL: 0.068 mg/dL
  GLC: 195.4 mg/dL
  IP: 9.5 mg/dL
  K: 3.9 meq/L
  LDH: 175.8 IU/L
  Na: 140.8 meq/L
  PL: 133.2 mg/dL
  RALB: 3.4 g/dL
  TBIL: 0.1 mg/dL
  TC: 70.4 mg/dL
  TG: 74 mg/dL
  TP: 5.4 g/dL
  gamma-GTP: 0.8 IU/L
[4]
  TERMINAL_BW: 229.5 g
  APTT: 20.6 s
  Bas: 0%
  Eos: 1%
  Fbg: 230.2 mg/dL
  Hb: 13.5 g/dL
  Ht: 39.6%
  Lym: 81.2%
  MCH: 20.6 pg
  MCHC: 34.1%
  MCV: 60.4 fL
  Mono: 3%
  Neu: 14.6%
  PT: 12.7 s
  Plat: 129 x10_4/uL
  RBC: 654.6 x10_4/ul
  Ret: 6.1%
  KIDNEY_L: 1 g
  KIDNEY_R: 1 g
  KIDNEY_TOTAL: 2 g
  LIVER: 11.8 g
  ALP: 1087 IU/L
  ALT: 35 IU/L
  AST: 65.8 IU/L
  BUN: 15.4 mg/dL
  CRE: 0.4 mg/dL
  Ca: 10.3 mg/dL
  Cl: 101 meq/L
  DBIL: 0.1 mg/dL
  GLC: 205.2 mg/dL
  IP: 9.4 mg/dL
  K: 3.8 meq/L
  LDH: 207 IU/L
  Na: 140.8 meq/L
  PL: 146.4 mg/dL
  RALB: 3.3 g/dL
  TBIL: 0.2 mg/dL
  TC: 72 mg/dL
  TG: 139.4 mg/dL
  TP: 5.5 g/dL
  gamma-GTP: 1 IU/L
[5]
  TERMINAL_BW: 220.8 g
  APTT: 18.6 s
  Bas: 0%
  Eos: 1%
  Fbg: 201.8 mg/dL
  Hb: 12.4 g/dL
  Ht: 36.3%
  Lym: 74.8%
  MCH: 21.2 pg
  MCHC: 34.3%
  MCV: 61.9 fL
  Mono: 3%
  Neu: 21%
  PT: 13.3 s
  Plat: 120.5 x10_4/uL
  RBC: 586.6 x10_4/ul
  Ret: 6.8%
  KIDNEY_L: 1 g
  KIDNEY_R: 1 g
  KIDNEY_TOTAL: 2 g
  LIVER: 9.8 g
  ALP: 966.6 IU/L
  ALT: 31.6 IU/L
  AST: 66 IU/L
  BUN: 11.2 mg/dL
  CRE: 0.4 mg/dL
  Ca: 10.2 mg/dL
  Cl: 100.6 meq/L
  DBIL: 0.072 mg/dL
  GLC: 208.8 mg/dL
  IP: 9.2 mg/dL
  K: 4 meq/L
  LDH: 174.6 IU/L
  Na: 140 meq/L
  PL: 140.8 mg/dL
  RALB: 3.3 g/dL
  TBIL: 0.1 mg/dL
  TC: 73.4 mg/dL
  TG: 56.8 mg/dL
  TP: 5.4 g/dL
  gamma-GTP: 0.8 IU/L
[6]
  TERMINAL_BW: 221 g
  APTT: 19.3 s
  Bas: 0%
  Eos: 1.2%
  Fbg: 208.8 mg/dL
  Hb: 12.9 g/dL
  Ht: 37.2%
  Lym: 70.6%
  MCH: 21.5 pg
  MCHC: 34.9%
  MCV: 61.8 fL
  Mono: 4.4%
  Neu: 23.2%
  PT: 13.2 s
  Plat: 129.9 x10_4/uL
  RBC: 602.4 x10_4/ul
  Ret: 7.1%
  KIDNEY_L: 1 g
  KIDNEY_R: 1.1 g
  KIDNEY_TOTAL: 2.1 g
  LIVER: 9.8 g
  ALP: 940.2 IU/L
  ALT: 27 IU/L
  AST: 65.6 IU/L
  BUN: 10 mg/dL
  CRE: 0.4 mg/dL
  Ca: 10.2 mg/dL
  Cl: 100.8 meq/L
  DBIL: 0.072 mg/dL
  GLC: 192.2 mg/dL
  IP: 9.7 mg/dL
  K: 4 meq/L
  LDH: 178.8 IU/L
  Na: 139.8 meq/L
  PL: 145.8 mg/dL
  RALB: 3.3 g/dL
  TBIL: 0.1 mg/dL
  TC: 78.8 mg/dL
  TG: 57 mg/dL
  TP: 5.5 g/dL
  gamma-GTP: 1.2 IU/L
[7]
  TERMINAL_BW: 219.2 g
  APTT: 18.3 s
  Bas: 0%
  Eos: 1%
  Fbg: 228.6 mg/dL
  Hb: 12.8 g/dL
  Ht: 37.1%
  Lym: 75.8%
  MCH: 21.3 pg
  MCHC: 34.6%
  MCV: 61.4 fL
  Mono: 3.4%
  Neu: 19%
  PT: 12.9 s
  Plat: 120.2 x10_4/uL
  RBC: 603.8 x10_4/ul
  Ret: 6.4%
  KIDNEY_L: 1 g
  KIDNEY_R: 1 g
  KIDNEY_TOTAL: 1.9 g
  LIVER: 9.6 g
  ALP: 705 IU/L
  AST: 62 IU/L
  BUN: 8 mg/dL
  CRE: 0.3 mg/dL
  Ca: 10.2 mg/dL
  Cl: 100.8 meq/L
  DBIL: 0.08 mg/dL
  GLC: 195.2 mg/dL
  IP: 10 mg/dL
  K: 3.8 meq/L
  LDH: 174.4 IU/L
  Na: 141 meq/L
  PL: 153.2 mg/dL
  RALB: 3.5 g/dL
  TBIL: 0.1 mg/dL
  TC: 80.4 mg/dL
  TG: 59.8 mg/dL
  TP: 5.5 g/dL
  gamma-GTP: 0.6 IU/L
[8]
  TERMINAL_BW: 226 g
  APTT: 19.9 s
  Bas: 0%
  Eos: 1%
  Fbg: 207.8 mg/dL
  Hb: 12.9 g/dL
  Ht: 37.7%
  Lym: 81.4%
  MCH: 21 pg
  MCHC: 34.1%
  MCV: 61.6 fL
  Mono: 4%
  Neu: 13.4%
  PT: 13.1 s
  Plat: 129.5 x10_4/uL
  RBC: 613.8 x10_4/ul
  Ret: 6.2%
  KIDNEY_L: 1 g
  KIDNEY_R: 1 g
  KIDNEY_TOTAL: 2.1 g
  LIVER: 12.1 g
  ALP: 924 IU/L
  ALT: 32.6 IU/L
  AST: 64.8 IU/L
  BUN: 11.2 mg/dL
  CRE: 0.4 mg/dL
  Ca: 10.1 mg/dL
  Cl: 100.6 meq/L
  DBIL: 0.1 mg/dL
  GLC: 200.4 mg/dL
  IP: 9.2 mg/dL
  K: 4.2 meq/L
  LDH: 230 IU/L
  Na: 140.6 meq/L
  PL: 162.8 mg/dL
  RALB: 3.4 g/dL
  TBIL: 0.2 mg/dL
  TC: 83.4 mg/dL
  TG: 169.2 mg/dL
  TP: 5.4 g/dL
  gamma-GTP: 1 IU/L
